Measured values: publication PMC7076515, “Impact of Mucin on Drug Diffusion: Development of a Straightforward In Vitro Method for the Determination of Drug Diffusivity in the Presence of Mucin” (Pharmaceutics, 2020)
Entries after “also recorded” stand apart in the source; their conditions may differ.

What was measured:
[1] = UV-visible localized spectroscopy: drug diffusion coefficient in water (D0); settings: no mucin; drug in PBS 65 mOsm/kg pH 7.4 injected into water; 23–25 °C; average of two parallel experiments
[2] = system: mucin from porcine stomach type III; test: UV-visible localized spectroscopy: diffusion from mucin dispersions into water (Drel), and of mucin itself; type: physicochemical; settings: compared to the absence of mucin
Text: Mucin type III from porcine stomach was dispersed in PBS 65 mOsm/kg (pH 7.4) to obtain 0.1, 0.3 and 0.6% (w/w) mucin dispersions.
In brief, Fick’s second law of diffusion was analytically solved (Equation (1)) assuming times (t) and positions (x) such that t ≪ h2/D and x ≪ h (where h is the full length of the cuvette occupied by water, 3.30 cm). […] (1) c(x,t)=2A/π e^−x^2/2σ^2+4Dt/2σ^2+4Dt

[3] = design: method as in Drugbank [15]; settings: ref Drugbank [15], cited from earlier work
[4] = system: purified gastric mucin type II; design: method as in PMID 9188047, PMID 9487548; settings: ref [24],[25]; cited from earlier work
[5] = design: method as in PMID 9188047, PMID 9487548; settings: ref [24],[25]; cited from earlier work

D0 (diffusion coefficient in plain water) [1] | D Reduction (%) ([2]; MUC 0.0%) | D Reduction (%) ([2]; MUC 0.1% w/w) | D Reduction (%) ([2]; MUC 0.3% w/w) | D Reduction (%) ([2]; MUC 0.6% w/w) | SMILES | Charge at pH 7.4 [3] | Diffusion in purified gastric mucin versus phosphate buffer [4] | Diffusion in native pig intestinal mucus [5] | pKa [3]
5.81 10^−6 cm^2/s | 0 | 24 | 47 | 63 | CC(C)NCC(O)COc1ccc(CC(N)=O)cc1 (stereo not shown) [ATN, Atenolol] |  |  |  | 
6.44 10^−6 cm^2/s | 0 | 17 | 36 | 37 | C[C@]12CCC(=O)C=C1CC[C@@H]1[C@@H]2[C@@H](O)C[C@@]2(C)[C@H]1CC[C@]2(O)C(=O)CO [HYD, hydrocortisone] | 0 | comparable to the one in phosphate buffer; also recorded: not hindered compared to phosphate buffer | impaired to a higher extent; also recorded: slow down the diffusion | 12.6
8.02 10^−6 cm^2/s | 0 | 25 | 53 | 65 | COc1ccc2cc([C@H](C)C(=O)O)ccc2c1 [NPR, naproxen] |  |  |  | 

SMILES | D0 (diffusion coefficient in plain water) [1] | D Reduction (%) ([2]; MUC 0.0%) | D Reduction (%) ([2]; MUC 0.1% w/w) | D Reduction (%) ([2]; MUC 0.3% w/w) | D Reduction (%) ([2]; MUC 0.6% w/w) | Charge at pH 7.4 [3] | Diffusion in purified gastric mucin versus phosphate buffer [4] | Diffusion in native pig intestinal mucus [5] | pKa [3]
Cn1c(=O)c2c(ncn2C)n(C)c1=O [CAF, caffeine] | 9.07 10^−6 cm^2/s | 0 | 33 | 51 | 67 | 0 |  |  | 
